Values of other authors, collected in patent US12350251B2, “Sexual health enhancement composition” (Rev Pharmaceuticals, Inc., priority 2016, dated 2025).
Read-outs that look alike come from different tables or passages of the source.

Experiments:
[1] = not given; remark: listed apart in the source
[2] = not given; remark: listed apart in the source
cAMP production = details: treated cells
human CC = details: in vitro, alone; read-out: EC50 of relaxation of human CC

For `Cl.N=C(N)NCCC[C@H](N)C(=O)O` [L-arginine hydrochloride (HCl), L-arginine hydrochloride], which Cmax (6 gm oral) is on record?
The Cmax was 310 µM.

What about the Half-life (IV) of the same molecule?
The Half-life was 1 h.

What about the Half-life (PO) of the same molecule?
The Half-life was 1.5 h.

And the changes in hemodynamics ([1]; 6 gm doses)?
The changes in hemodynamics was “No significant changes”.

What about the “urinary cGMP and nitrate excretion” value ([1]; about 6 gm to about 30 gm IV) of the same molecule?
Its value is “significant increases”.

And the “blood pressure and total peripheral resistance” value ([1]; after 30 gm IV)?
The value was “significantly decreased”.

For `N=C(N)NCCC[C@H](N)C(=O)O` [L-arginine], which “peripheral vasodilation in humans” value ([1]; IV infusion or oral, about 6 to about 30 gm) is on record?
Its value is “induced peripheral vasodilation”.

For `C=C[C@@]1(C)CC(=O)[C@]2(O)[C@@]3(C)[C@@H](O)CCC(C)(C)[C@@H]3[C@H](O)[C@H](OC(C)=O)[C@@]2(C)O1` [forskolin], which water solubility [2] is on record?
Its water solubility is “water soluble”.

With `COc1ccc(Cc2nccc3cc(OC)c(OC)cc23)cc1OC` [papaverine] as the molecule, how does the cAMP production (cAMP production) read?
Its cAMP production is “unaffected”.

For `Cc1ccc(N(CC2=NCCN2)c2cccc(O)c2)cc1` [phentolamine], which cAMP production (cAMP production) is on record?
The cAMP production was “unaffected”.

Which EC50 (human CC) does the source give for `CCCCC[C@H](O)/C=C/[C@H]1[C@H](O)CC(=O)[C@@H]1CCCCCCC(=O)O` [prostaglandin E1] here?
The EC50 was ~16 nM.
